Earlier results, collected in patent US20060135599A1, “Use for pharmaceutical composition” (GW Pharma Limited, priority 2002, published 2006).

Key:
spasticity [1] = details: oral, 13 patients
spasticity [2] = details: oral, nine patients

CCCCCc1cc(O)c2c(c1)OC(C)(C)[C@@H]1CCC(C)=C[C@@H]21 [oral THC, Δ^9 tetrahydrocannabinol]
subjective improvements in spasticity (spasticity [1]): significant subjective improvements
spasticity compared with placebo (spasticity [2]): statistically significant reduction
